According to patent publication US20260295053A1, “COMPOUNDS FOR DEGRADATION AND INHIBITION OF KRAS (G12D) PROTEIN” (Shenzhen Ionova Life Science Co., Ltd., priority 2023, published 2026):

How the values were obtained:
[1] = target: T1, KRAS (G12D) (Homo sapiens, UniProt P01116, G12D); test: KRAS (G12D) cellular degradation assay in AsPC-1 cells; format: cell-based; details: 24 hours, antibody fluorescence (Odyssey CLX), DC50 half-maximal degradation concentration
T1 construct: in-cell western with KRAS G12D antibody after 24 h
Procedure, shortened: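 Degradation: 22,000 cells/well grown to ~90% confluency, 24 h compound, fixed/permeabilised, anti-KRAS G12D + β-actin antibodies, near-IR fluorescence, DC50. Proliferation: 3,500 cells/well overnight, 6 d compound, CellTiter Glo luminescence, IC50. Dosing […]–1.5 nM final, 1:3 steps.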

[2] = tested on: AsPC-1 cells; test: AsPC-1 cell proliferation assay (CellTiter Glo); format: cell-based; details: 6 days
Description: ASPC-1 and PK-59 cellular assays ASPC-1 (ATCC cat. CRL-1682) and PK-59 (Nanjing Cobioer, Cat. No. CBP61184) were used in KRAS cellular degradation, pERK inhibition and proliferation assays. The two cell lines were maintained following vendor's instructions. For monitoring KRAS (G12D) cellular degradation and pERK biomarker inhibition, cells were seeded into a 96-well plate with 22,000 and 16,000 cells/well for assays in ASPC-1 and PK-59, respectively. Cells were incubated at 37° C. with 5% CO2 and cell density was monitored until ^~90% confluency was reached. Compounds were serially diluted at a 1:3 ratio and dispensed into each well at final concentrations ranging from […] to 1.5 nM. After incubation for 24 hours, the culture media were removed and the cells were subjected to fixation, permeabilization and blocking (Intercept blocking buffer, Li-cor). For KRAS (G12D) degradation, the cells were treated with primary antibody (KRAS G12D antibody, Cell Signaling Technologies, Cat. No. CST14429) and for β-actin (β-actin mAb, Beyotime, Cat. No. AF-5001), and followed by secondary antibodies, Anti-rabbit IgG (H+L) (DyLight™ 800 4×PEG Conjugate) or IRDye® 680RD Goat anti-Mouse IgG. For pERK inhibition assay, cells were treated with primary antibodies for pERK (Phospho-p44/42 MAPK (Erk1/2) (Thr202/Tyr204) (D13.14.4E) XP® Rabbit mAb, Cell Signaling Technologies, Cat. No. CST-4370) and β-actin (β-actin mAb, Beyotime, Cat. No. AF-5001), and followed by secondary antibodies, Anti-rabbit IgG (H+L) (DyLight™ 800 4×PEG Conjugate) or IRDye® 680RD Goat anti-Mouse IgG. Fluorescence signals were read on Odyssey CLX instrument. For cell proliferation assays, cells were seeded into a 96-well plate at 3,500 and 800 cells/well for assays in ASPC-1 and PK-59, respectively. Cells were incubated at 37° C. with 5% CO2 for overnight. Compounds were serially diluted at a 1:3 ratio and dispensed into each well at final concentrations ranging from […] to 1.5 nM. After incubation for 6 days, cell viability reagent (CellTiter Glo, Promega, Cat. No. G7573) was added to each well and luminescence was recorded on Molecular Devices Spectramax iD3 instrument. IC50, half-maximal inhibitory concentration for pERK inhibition or cell proliferation, and DC50, half-maximal degradation concentration in KRAS (G12D) cellular degradation were determined by fitting the corresponding dose response curves using GraphPad Prism software.
Wherein “A” means the value <10 nM, “B” means 10 nM<the value <100 nM, “C” means 100 nM<the value <1000 nM, and “D” means the value >1000 nM, in which, the value means the value of DC50 or IC50. NT means not tested.

T1 sequence (P01116 1-188 isoform P01116-2 G12D): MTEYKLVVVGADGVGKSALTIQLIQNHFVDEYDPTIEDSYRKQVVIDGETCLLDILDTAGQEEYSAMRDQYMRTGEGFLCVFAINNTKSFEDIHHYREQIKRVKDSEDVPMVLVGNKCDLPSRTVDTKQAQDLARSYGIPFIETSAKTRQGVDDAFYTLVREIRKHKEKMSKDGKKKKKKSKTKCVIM

SMILES | DC50 [1] [nM] | IC50 ([2]; Homo sapiens, ASPC1, 144 h) [nM] | IC50 [2] [nM]
CCn1nccc1-c1ccc([C@@H](NC(=O)[C@@H]2C[C@@H](O)CN2C(=O)[C@H](C(C)C)n2cc(-c3ccc(COc4c(-c5c(C)c(F)cc6[nH]ncc56)c(C5CC5)cc5c(N6C[C@@H]7C[C@H]6CN7)nc(OC[C@H](C)OC)nc45)cc3)nn2)[C@H](C)O)c2c1CC2 [Example 85, (2S,4R)-1-((2S)-2-(4-(4-(((4-((1S,4S)-2,5-diazabicyclo[2.2.1]heptan-2-yl)-6-cyclopropyl-7-(6-fluoro-5-methyl-1H-indazol-4-yl)-2-((S)-2-methoxypropoxy)quinazolin-8-yl)oxy)methyl)phenyl)-1H-1,2,3-triazol-1-yl)-3-methylbutanoyl)-N-((1R,2S)-1-(5-(1-ethyl-1H-pyrazol-5-yl)bicyclo[4.2.0]octa-1(6),2,4-trien-2-yl)-2-hydroxypropyl)-4-hydroxypyrrolidine-2-carboxamide] | < 10 | < 10 | –
CO[C@@H](C)COc1nc(N2C[C@H]3C[C@@H]2CN3)c2cc(C3CC3)c(-c3c(C)c(F)cc4[nH]ncc34)c(OCc3ccc(-c4cn([C@H](C(=O)N5C[C@H](O)C[C@H]5C(=O)N[C@@H](CO)c5ccc(-c6scnc6C)cc5)C(C)C)nn4)cc3)c2n1 (single isomer, unassigned) [Example 2B] | > 1000 | – | > 1000
CO[C@@H](C)COc1nc(N2CC3CCC(C2)N3)c2cc(C3CC3)c(-c3c(C)c(F)cc4[nH]ncc34)c(OCc3ccc(-c4cn([C@H](C(=O)N5C[C@H](O)C[C@H]5C(=O)N[C@@H](CO)c5ccc(-c6scnc6C)cc5)C(C)C)nn4)cc3)c2n1 (single isomer, unassigned) [Example 12A] | 10 to 100 | 10 to 100 | –
Cc1ncsc1-c1ccc([C@@H](NC(=O)[C@@H]2C[C@@H](O)CN2C(=O)[C@H](C(C)C)n2cc(-c3ccc(COc4c(-c5c(C)c(F)cc6[nH]ncc56)c(C5CC5)cc5c(N(C)[C@H]6CCNC6)nc(OC[C@H]6CCCO6)nc45)cc3)nn2)[C@H](C)O)cc1 [Example 208, (2S,4R)-1-((2S)-2-(4-(4-(((6-cyclopropyl-7-(6-fluoro-5-methyl-1H-indazol-4-yl)-4-(methyl((S)-pyrrolidin-3-yl)amino)-2-(((R)-tetrahydrofuran-2-yl)methoxy)quinazolin-8-yl)oxy)methyl)phenyl)-1H-1,2,3-triazol-1-yl)-3-methylbutanoyl)-4-hydroxy-N-((1R,2S)-2-hydroxy-1-(4-(4-methylthiazol-5-yl)phenyl)propyl)pyrrolidine-2-carboxamide] | < 10 | < 10 | –
Cc1ncsc1-c1ccc([C@H](CO)NC(=O)[C@@H]2C[C@@H](O)CN2C(=O)[C@H](C(C)C)n2cc(-c3ccc(COc4c(-c5c(C)c(F)cc6[nH]ncc56)c(C5CCC5)cc5c(N6C[C@@H]7C[C@H]6CN7)nc(OC6CCOCC6)nc45)cc3)nn2)cc1 [Example 94, (2S,4R)-1-((2S)-2-(4-(4-(((4-((1S,4S)-2,5-diazabicyclo[2.2.1]heptan-2-yl)-6-cyclobutyl-7-(6-fluoro-5-methyl-1H-indazol-4-yl)-2-((tetrahydro-2H-pyran-4-yl)oxy)quinazolin-8-yl)oxy)methyl)phenyl)-1H-1,2,3-triazol-1-yl)-3-methylbutanoyl)-4-hydroxy-N—((R)-2-hydroxy-1-(4-(4-methylthiazol-5-yl)phenyl)ethyl)pyrrolidine-2-carboxamide] | < 10 | < 10 | –
CO[C@@H](C)COc1nc(N2CCNCC[C@H]2C)c2cc(C3CC3)c(-c3c(C)c(F)cc4[nH]ncc34)c(OCc3ccc(-c4cn([C@H](C(=O)N5C[C@H](O)C[C@H]5C(=O)N[C@H](c5ccc(-c6scnc6C)cc5)[C@H](C)O)C(C)C)nn4)cc3)c2n1 [Example 190, (2S,4R)-1-((2S)-2-(4-(4-(((6-cyclopropyl-7-(6-fluoro-5-methyl-1H-indazol-4-yl)-2-((S)-2-methoxypropoxy)-4-((R)-7-methyl-1,4-diazepan-1-yl)quinazolin-8-yl)oxy)methyl)phenyl)-1H-1,2,3-triazol-1-yl)-3-methylbutanoyl)-4-hydroxy-N-((1R,2S)-2-hydroxy-1-(4-(4-methylthiazol-5-yl)phenyl)propyl)pyrrolidine-2-carboxamide] | < 10 | < 10 | –
CCn1nccc1-c1ccc([C@H](CO)NC(=O)[C@@H]2C[C@@H](O)CN2C(=O)[C@H](C(C)C)n2cc(-c3ccc(COc4c(-c5c(C)c(F)cc6[nH]ncc56)c(C5CC5)cc5c(N(C)[C@H]6CCNC6)nc(O[C@H]6C[C@H](OC)C6)nc45)cc3)nn2)cc1 [Example 165, (2S,4R)-1-((2S)-2-(4-(4-(((6-cyclopropyl-7-(6-fluoro-5-methyl-1H-indazol-4-yl)-2-((1r,3S)-3-methoxycyclobutoxy)-4-(methyl((S)-pyrrolidin-3-yl)amino)quinazolin-8-yl)oxy)methyl)phenyl)-1H-1,2,3-triazol-1-yl)-3-methylbutanoyl)-N—((R)-1-(4-(1-ethyl-1H-pyrazol-5-yl)phenyl)-2-hydroxyethyl)-4-hydroxypyrrolidine-2-carboxamide] | < 10 | < 10 | –

More lines, now with the values ahead:

DC50 [1] [nM] | IC50 ([2]; Homo sapiens, ASPC1, 144 h) [nM] | IC50 [2] [nM] | SMILES
< 10 | < 10 | – | CCn1nccc1-c1ccc([C@H](CO)NC(=O)[C@@H]2C[C@@H](O)CN2C(=O)[C@H](C(C)C)n2cc(-c3ccc(COc4c(-c5c(C)c(F)c(C)c6[nH]ncc56)c(C5CC5)cc5c(N6C[C@@H]7C[C@H]6CN7)nc(OC[C@H](C)OC)nc45)cc3)nn2)cc1 [Example 66, (2S,4R)-1-((2S)-2-(4-(4-(((4-((1S,4S)-2,5-diazabicyclo[2.2.1]heptan-2-yl)-6-cyclopropyl-7-(6-fluoro-5,7-dimethyl-1H-indazol-4-yl)-2-((S)-2-methoxypropoxy)quinazolin-8-yl)oxy)methyl)phenyl)-1H-1,2,3-triazol-1-yl)-3-methylbutanoyl)-N—((R)-1-(4-(1-ethyl-1H-pyrazol-5-yl)phenyl)-2-hydroxyethyl)-4-hydroxypyrrolidine-2-carboxamide]
< 10 | < 10 | – | CCn1nccc1-c1ccc([C@H](CO)NC(=O)[C@@H]2C[C@@H](O)CN2C(=O)[C@H](C(C)C)n2cc(-c3ccc(COc4c(-c5c(C)c(F)cc6[nH]ncc56)c(C5CC5)cc5c(N6C[C@@H]7C[C@H]6CN7)nc(OCC(OC)C(F)(F)F)nc45)cc3)nn2)cc1 (stereo partly drawn) [Example 48, (2S,4R)-1-((2S)-2-(4-(4-(((4-((1S,4S)-2,5-diazabicyclo[2.2.1]heptan-2-yl)-6-cyclopropyl-7-(6-fluoro-5-methyl-1H-indazol-4-yl)-2-(3,3,3-trifluoro-2-methoxypropoxy)quinazolin-8-yl)oxy)methyl)phenyl)-1H-1,2,3-triazol-1-yl)-3-methylbutanoyl)-N—((R)-1-(4-(1-ethyl-1H-pyrazol-5-yl)phenyl)-2-hydroxyethyl)-4-hydroxypyrrolidine-2-carboxamide]
10 to 100 | 10 to 100 | – | CCn1nccc1-c1ccc([C@H](CO)NC(=O)[C@@H]2C[C@@H](O)CN2C(=O)[C@H](C(C)C)n2cc(-c3ccc(COc4c(-c5c(C)c(F)cc6[nH]ncc56)c(C5CC5)cc5c(N6CCCCCC6)nc(OC[C@H](C)OC)nc45)cc3)nn2)cc1 [Example 177, (2S,4R)-1-((2S)-2-(4-(4-(((4-(azepan-1-yl)-6-cyclopropyl-7-(6-fluoro-5-methyl-1H-indazol-4-yl)-2-((S)-2-methoxypropoxy)quinazolin-8-yl)oxy)methyl)phenyl)-1H-1,2,3-triazol-1-yl)-3-methylbutanoyl)-N—((R)-1-(4-(1-ethyl-1H-pyrazol-5-yl)phenyl)-2-hydroxyethyl)-4-hydroxypyrrolidine-2-carboxamide]
